The text below walks through data of US7833331B2, “Non-toxic corrosion-protection pigments based on cobalt” (University of Dayton, priority 2007, dated 2010).

“Also recorded” adds a separate entry of the source. Where two headings read alike, the source gives them in different places.

The assay can be described thus: Accelerated corrosion testing (both ASTM B-117 and G-85.5) of PVB wash primers, overall observation. The procedure:
The corrosion inhibiting performance of CoIII pigments was evaluated by incorporating them into primer paint formulations. […] The wash primer is composed of a resin, an acid, a corrosion inhibiting pigment, powdered talc, and carbon lampblack. The acid content of this wash primer provides a rigorous initial test of the stability and performance of the pigments. Other, more benign, polymer-based binder and resin systems might not separate the compounds based on their performance as effectively or as rapidly.
PVB was used exclusively throughout testing to avoid preparation and compositional complications during analysis of pigment performance. However, the invention is not limited to the use of PVB.
A small amount (0.2 g) of powdered talc (magnesium silicate) “filler” was added. Lampblack was not added to these samples. These components were mixed thoroughly by hand and 3.8 g of phosphoric acid diluent added with further mixing. This rough processing allowed direct comparisons of pigment performance to be made without complications due to powder treatments, modifications, and additives.
This is not the conventional paint application procedure for aluminum alloys. Under normal service conditions, aluminum alloys are first subjected to a hexavalent chromium-containing conversion coating prior to primer application. However, the conversion coating was omitted so that the performance of the pigment alone could be evaluated and not the synergistic effects of hexavalent chromium (in the conversion coating) or even of barrier films (in the phosphate or anodized coatings).
This accelerated corrosion test exposes samples to a constant salt-water fog and is a de facto test of solubility for corrosion inhibitors. […] This accelerated corrosion test exposes samples to a cycle of fog of dilute salt and ammonium sulfate at room temperature followed by forced-air drying at an elevated temperature.
Chromate pigments were precipitated from aqueous synthesis solutions and incorporated into PVB wash primer formulations so that each primer sample had the same molar quantity of hexavalent chromium. […] After the samples had dried for 24 hours, they were scribed and the edges of each sample taped to eliminate edge effects.
Wash primer coatings containing these pigments were prepared wherein the trivalent cobalt was present in identical molar concentrations from sample to sample. […] Pigments were made with chloride, bromide, sulfate, hexafluorosilicate, phosphate, molybdate, tungstate, and phosphomolybdate anions. Additionally, […] was also used as a pigment for this application.

Where [1] appears, read: 135 hours of both ASTM B-117 and G-85.5, identical molar concentrations of trivalent cobalt, 2024-T3 and 7075-T6.

For the compound `N.N.N.N.N.N.N.N.N.N.N.N.[Co+3].[Co+3].[O]=[Mo](=[O])([O-])[O-].[O]=[Mo](=[O])([O-])[O-].[O]=[Mo](=[O])([O-])[O-]` [hexaaminecobalt(III) molybdate], the “corrosion resistance of trivalent cobalt pigments in PVB wash primer” value (“corrosion resistance” below) is listed as “a small amount of corrosion resistance; also recorded: performed the best of these three pigment compounds”.
With `N.N.N.N.N.N.N.N.N.N.N.N.[Co+3].[Co+3].[O]=[W](=[O])([O-])[O-].[O]=[W](=[O])([O-])[O-].[O]=[W](=[O])([O-])[O-]` [hexaaminecobalt(III) tungstate], the “corrosion resistance” value is listed as “a small amount of corrosion resistance”.
On the same count and under the same terms, under `N.N.N.N.N.N.[Cl-].[Cl-].[Cl-].[Co+3]` [hexaaminecobalt(III) chloride] stands “performed very well in the early stages of the test and then failed as the test progressed”.
On to `F[Si-2](F)(F)(F)(F)F.F[Si-2](F)(F)(F)(F)F.F[Si-2](F)(F)(F)(F)F.N.N.N.N.N.N.N.N.N.N.N.N.[Co+3].[Co+3]` [hexaaminecobalt(III) hexafluorosilicate], for which the “corrosion resistance” value under setting [1] is on record as “performed the best of all”.
On the same count and under the same terms, then hexaaminecobalt(III) phosphomolybdate, with “a small amount of corrosion resistance; also recorded: performed the worst”.
As to `[O]=[Co][O][Co]=[O]` [CO2O3, Co2O3, reference compound], the “corrosion resistance” value under setting [1] is given as “no discernable corrosion resistance at all”.
